In PubChem BioAssay AID1963967 (Molecular Pharmacology Branch, DTP, NCI, 2024):

System: 855422-203-R-J1-PDC spheroids with HUVEC/MSC, viability
Experiment: Anticancer human tumor 855422-203-R-J1-PDC patient-derived bladder carcinoma cell line growth inhibition [PI3K]
Settings: for viability, T/C: stronger effect = lower value
Procedure, shortened: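 Agents were dosed from a top concentration near clinical Cmax (otherwise 10 microM) in half-log decrements, alone or combined with PI3K inhibitors. The spheroids contain tumor cells plus endothelial (HUVEC) and MSC stroma; viability is measured.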

[1] = curve of first compound, second compound 0.00316 µM
[2] = curve of first compound, second compound 0.01 µM
[3] = curve of first compound, second compound 0.0316 µM
[4] = curve of first compound, second compound 0.1 µM
[5] = curve of first compound, second compound 0.316 µM
[6] = curve of first compound, second compound 1 µM
[7] = second compound 0.00316 µM, first compound 0.0316 µM
[8] = second compound 0.00316 µM, first compound 0.1 µM
[9] = second compound 0.01 µM, first compound 0.0316 µM
[10] = second compound 0.01 µM, first compound 0.1 µM
[11] = second compound 0.0316 µM, first compound 0.0316 µM
[12] = second compound 0.0316 µM, first compound 0.1 µM
[13] = second compound 0.0316 µM, first compound 0.316 µM
[14] = second compound 0.0316 µM, first compound 1 µM
[15] = second compound 0.0316 µM, first compound 3.16 µM
[16] = second compound 0.0316 µM, first compound 10 µM
[17] = second compound 0.1 µM, first compound 0.0316 µM
[18] = second compound 0.1 µM, first compound 0.1 µM
[19] = second compound 0.1 µM, first compound 0.316 µM
[20] = second compound 0.1 µM, first compound 1 µM
[21] = second compound 0.1 µM, first compound 3.16 µM
[22] = second compound 0.1 µM, first compound 10 µM
[23] = second compound 0.316 µM, first compound 0.0316 µM
[24] = second compound 0.316 µM, first compound 0.1 µM
[25] = second compound 0.316 µM, first compound 0.316 µM
[26] = second compound 0.316 µM, first compound 1 µM
[27] = second compound 0.316 µM, first compound 3.16 µM
[28] = second compound 0.316 µM, first compound 10 µM
[29] = second compound 1 µM, first compound 0.0316 µM
[30] = second compound 1 µM, first compound 0.1 µM
[31] = second compound 1 µM, first compound 0.316 µM
[32] = second compound 1 µM, first compound 1 µM
[33] = second compound 1 µM, first compound 3.16 µM
[34] = second compound 1 µM, first compound 10 µM
[35] = curve of first compound, second compound 3.16 µM
[36] = curve of first compound, second compound 10 µM
[37] = second compound 3.16 µM, first compound 0.0316 µM
[38] = second compound 3.16 µM, first compound 0.1 µM
[39] = second compound 10 µM, first compound 0.0316 µM
[40] = second compound 10 µM, first compound 0.1 µM
[41] = second compound 0.0316 µM, first compound 0.000316 µM
[42] = second compound 0.0316 µM, first compound 0.001 µM
[43] = second compound 0.0316 µM, first compound 0.00316 µM
[44] = second compound 0.0316 µM, first compound 0.01 µM
[45] = second compound 0.1 µM, first compound 0.000316 µM
[46] = second compound 0.1 µM, first compound 0.001 µM
[47] = second compound 0.1 µM, first compound 0.00316 µM
[48] = second compound 0.1 µM, first compound 0.01 µM
[49] = second compound 0.316 µM, first compound 0.000316 µM
[50] = second compound 0.316 µM, first compound 0.001 µM
[51] = second compound 0.316 µM, first compound 0.00316 µM
[52] = second compound 0.316 µM, first compound 0.01 µM
[53] = second compound 1 µM, first compound 0.000316 µM
[54] = second compound 1 µM, first compound 0.001 µM
[55] = second compound 1 µM, first compound 0.00316 µM
[56] = second compound 1 µM, first compound 0.01 µM
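Note: agents incubated with spheroids for one week before read-out.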
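Throughout, for viability, T/C: 100% = DMSO vehicle-treated control wells.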

CC(Cn1ccc(-c2ccc(C#N)c(Cl)c2)n1)NC(=O)c1cc(C(C)O)[nH]n1 (stereo not given) + CC(Nc1ccc2c(c1)OCCn1cc(N3C(=O)OCC3C(F)F)nc1-2)C(N)=O
IC50 [1]: > 10000 nM
IC50 [2]: > 10000 nM
IC50 [3]: > 10000 nM
IC50 [4]: > 10000 nM
IC50 [5]: 1670 nM
IC50 [6]: < 31.6 nM
viability, T/C [7]: 106%
viability, T/C [8]: 88%
viability, T/C (second compound 0.00316 µM, first compound 0.316 µM): 115%
viability, T/C (second compound 0.00316 µM, first compound 1 µM): 86.7%
viability, T/C (second compound 0.00316 µM, first compound 3.16 µM): 99%
viability, T/C (second compound 0.00316 µM, first compound 10 µM): 86%
viability, T/C [9]: 105%
viability, T/C [10]: 82.4%
viability, T/C (second compound 0.01 µM, first compound 0.316 µM): 107%
viability, T/C (second compound 0.01 µM, first compound 1 µM): 99.9%
viability, T/C (second compound 0.01 µM, first compound 3.16 µM): 88.4%
viability, T/C (second compound 0.01 µM, first compound 10 µM): 79.6%
viability, T/C [11]: 83.3%
viability, T/C [12]: 83.7%
viability, T/C [13]: 82%
viability, T/C [14]: 85%
viability, T/C [15]: 97.8%
viability, T/C [16]: 70.3%
viability, T/C [17]: 67.1%
viability, T/C [18]: 71.9%
viability, T/C [19]: 75.6%
viability, T/C [20]: 71.8%
viability, T/C [21]: 66.4%
viability, T/C [22]: 63.4%
viability, T/C [23]: 53.4%
viability, T/C [24]: 51.3%
viability, T/C [25]: 59.7%
viability, T/C [26]: 49.6%
viability, T/C [27]: 46.1%
viability, T/C [28]: 44.7%
viability, T/C [29]: 35.6%
viability, T/C [30]: 40.9%
viability, T/C [31]: 36.1%
viability, T/C [32]: 36.2%
viability, T/C [33]: 33.6%
viability, T/C [34]: 28.9%

CC(Cn1ccc(-c2ccc(C#N)c(Cl)c2)n1)NC(=O)c1cc(C(C)O)[nH]n1 (stereo not given)
viability, T/C (compound 0.0316 µM): 108% [middle of 4 runs]
viability, T/C (compound 0.1 µM): 96.9% [middle of 4 runs]
viability, T/C (compound 0.316 µM): 110% [middle of 4 runs]
viability, T/C (compound 1 µM): 93.5% [middle of 4 runs]
viability, T/C (compound 3.16 µM): 97.2% [middle of 4 runs]
viability, T/C (compound 10 µM): 86.2% [middle of 4 runs]
IC50 (curve of compound): > 10000 nM

CCCS(=O)(=O)Nc1ccc(F)c(C(=O)c2c[nH]c3ncc(-c4ccc(Cl)cc4)cc23)c1F + CC(Nc1ncnc2nc[nH]c12)c1cc2cccc(Cl)c2c(=O)n1-c1ccccc1
IC50 [3]: 3700 nM
IC50 [4]: 3690 nM
IC50 [5]: 4350 nM
IC50 [6]: 4640 nM
IC50 [35]: 4240 nM
IC50 [36]: 3690 nM
viability, T/C [11]: 118%
viability, T/C [12]: 88.6%
viability, T/C [13]: 102%
viability, T/C [14]: 85.9%
viability, T/C [15]: 59%
viability, T/C [16]: 0.26%
viability, T/C [17]: 110%
viability, T/C [18]: 109%
viability, T/C [19]: 103%
viability, T/C [20]: 88.1%
viability, T/C [21]: 58.1%
viability, T/C [22]: 0.13%
viability, T/C [23]: 100%
viability, T/C [24]: 97.9%
viability, T/C [25]: 90.7%
viability, T/C [26]: 88.4%
viability, T/C [27]: 70.4%
viability, T/C [28]: 0.12%
viability, T/C [29]: 92.8%
viability, T/C [30]: 98.2%
viability, T/C [31]: 98%
viability, T/C [32]: 91.6%
viability, T/C [33]: 75%
viability, T/C [34]: 0.2%
viability, T/C [37]: 89.2%
viability, T/C [38]: 100%
viability, T/C (second compound 3.16 µM, first compound 0.316 µM): 99.7%
viability, T/C (second compound 3.16 µM, first compound 1 µM): 78.2%
viability, T/C (second compound 3.16 µM, first compound 3.16 µM): 70%
viability, T/C (second compound 3.16 µM, first compound 10 µM): 0.61%
viability, T/C [39]: 87%
viability, T/C [40]: 83.4%
viability, T/C (second compound 10 µM, first compound 0.316 µM): 77.8%
viability, T/C (second compound 10 µM, first compound 1 µM): 76.9%
viability, T/C (second compound 10 µM, first compound 3.16 µM): 58.2%
viability, T/C (second compound 10 µM, first compound 10 µM): 0.42%

CC(=O)c1c(C)c2cnc(Nc3ccc(N4CCNCC4)cn3)nc2n(C2CCCC2)c1=O + COc1c(OCCCN2CCOCC2)ccc2c3n(c(=NC(=O)c4cnc(N)nc4)nc12)CCN3
IC50 [1]: > 100 nM
IC50 [2]: > 100 nM
IC50 [3]: 18.9 nM
IC50 [4]: < 0.316 nM
IC50 [5]: < 0.316 nM
IC50 [6]: < 0.316 nM
viability, T/C (second compound 0.00316 µM, first compound 0.000316 µM): 91.7%
viability, T/C (second compound 0.00316 µM, first compound 0.001 µM): 101%
viability, T/C (second compound 0.00316 µM, first compound 0.00316 µM): 95.2%
viability, T/C (second compound 0.00316 µM, first compound 0.01 µM): 98.3%
viability, T/C [7]: 90.5%
viability, T/C [8]: 73.5%
viability, T/C (second compound 0.01 µM, first compound 0.000316 µM): 83.1%
viability, T/C (second compound 0.01 µM, first compound 0.001 µM): 88.4%
viability, T/C (second compound 0.01 µM, first compound 0.00316 µM): 88.2%
viability, T/C (second compound 0.01 µM, first compound 0.01 µM): 84.7%
viability, T/C [9]: 86.6%
viability, T/C [10]: 56.5%
viability, T/C [41]: 67.9%
viability, T/C [42]: 63.5%
viability, T/C [43]: 58.4%
viability, T/C [44]: 55.2%
viability, T/C [11]: 47.6%
viability, T/C [12]: 26.9%
viability, T/C [45]: 26.8%
viability, T/C [46]: 27.5%
viability, T/C [47]: 22.6%
viability, T/C [48]: 25.4%
viability, T/C [17]: 20%
viability, T/C [18]: 12.1%
viability, T/C [49]: 10.4%
viability, T/C [50]: 7.97%
viability, T/C [51]: 9.28%
viability, T/C [52]: 8.98%
viability, T/C [23]: 6.22%
viability, T/C [24]: 5.08%
viability, T/C [53]: 3.62%
viability, T/C [54]: 4.81%
viability, T/C [55]: 3.28%
viability, T/C [56]: 3.47%
viability, T/C [29]: 4.56%
viability, T/C [30]: 3.64%

CC(=O)c1c(C)c2cnc(Nc3ccc(N4CCNCC4)cn3)nc2n(C2CCCC2)c1=O + Cc1nc(NC(=O)N2CCCC2C(N)=O)sc1-c1ccnc(C(C)(C)C(F)(F)F)c1
IC50 [3]: > 100 nM
IC50 [4]: > 100 nM
IC50 [5]: > 100 nM
IC50 [6]: 51.7 nM
IC50 [35]: < 0.316 nM
IC50 [36]: < 0.316 nM
viability, T/C [41]: 103%
viability, T/C [42]: 94.1%
viability, T/C [43]: 111%
viability, T/C [44]: 112%
viability, T/C [11]: 102%
viability, T/C [12]: 85.3%
viability, T/C [45]: 106%
viability, T/C [46]: 97.8%
viability, T/C [47]: 109%
viability, T/C [48]: 98.3%
viability, T/C [17]: 96.3%
viability, T/C [18]: 76.7%
viability, T/C [49]: 91.7%
viability, T/C [50]: 92.5%
viability, T/C [51]: 97.3%
viability, T/C [52]: 90.7%
viability, T/C [23]: 90.9%
viability, T/C [24]: 58%
viability, T/C [53]: 69.4%
viability, T/C [54]: 78.2%
viability, T/C [55]: 72.8%
viability, T/C [56]: 75.5%
viability, T/C [29]: 60.5%
viability, T/C [30]: 33%
viability, T/C (second compound 3.16 µM, first compound 0.000316 µM): 44.1%
viability, T/C (second compound 3.16 µM, first compound 0.001 µM): 46.9%
viability, T/C (second compound 3.16 µM, first compound 0.00316 µM): 42.7%
viability, T/C (second compound 3.16 µM, first compound 0.01 µM): 41.3%
viability, T/C [37]: 34.5%
viability, T/C [38]: 18.2%
viability, T/C (second compound 10 µM, first compound 0.000316 µM): 25.3%
viability, T/C (second compound 10 µM, first compound 0.001 µM): 24%
viability, T/C (second compound 10 µM, first compound 0.00316 µM): 24.1%
viability, T/C (second compound 10 µM, first compound 0.01 µM): 23%
viability, T/C [39]: 19.3%
viability, T/C [40]: 10.7%
